Key:
[1] = system: human colon cancer (HCT-116); design: method as in PMID 29772699, PMID 28122174, PMID 27338337, PMID 26506328; details: HCT-116 cell line; cited from earlier work
[2] = Phenyl (Ph) chromatography, logkw from two gradients with DryLab; assay type: physicochemical; details: for logkw, Table S6: Phenyl chromatography, pH 7.4, short and long gradient; for logkwPh: pH 7.4, 40 °C, retention factor extrapolated to 0% organic modifier
Description: (§1) For this reason, the next step of our study concerns the characterization of investigated sulfonamide derivatives using a chromatographic approach. Generally, in RP-HPLC, the interactions between solutes and the stationary phase surface are mainly governed by lipophilicity. Consequently, RP-HPLC is the primary tool for assessing the lipophilicity of xenobiotics. […] Generally, the chemical character of target solutes determines interactions between the molecule and the stationary phase that may occur. Considering the large variety of RP-HPLC beds and differences in specific surface area, the energy of the sorbent’s intermolecular interactions between solutes and chemical structures, four different reversed-phase stationary phases and IAM column were investigated during this study. The lipophilicity index was presented as a logkw value, so the retention factor was extrapolated to the pure water after calculation using a protocol based on two gradient measurements and DryLab software.
(§2) Since the biomimetic chromatography experiments are carried out at physiological pH to compare obtained results, all chromatographic experiments have been carried out at pH 7.4. […] Consequently, the chromatography lipophilicity indices refer to the distribution coefficient (logD) values, which better reflect the lipophilicity of ionized substances under physiological conditions.
(§3) For C8, cyanopropyl, and phenyl chromatography, according to the assumption proposed by Snyder and co-workers, appropriate logkw values (i.e., the retention factor logk extrapolated to 0% organic modifier, as an alternative to logP) were obtained. […] Dwell volume for these HPLC systems was measured at 0.780 mL, whereas the obtained dead times for used HPLC columns were equal to 1.530 min, 1.252 min, and 2.335 min for C8, SB-CN, and UK-Phenyl, respectively. The mobile phase was ammonium acetate buffer (50 mM) at pH 7.4 and acetonitrile as an organic modifier in each system. C8 chromatography was performed on Unison UK-C8 column (150 × 2 mm; 3.0 µm. Imtakt; USA) with 0.3 mL/min flow rate. Analyses were carried out in linear gradient from 30 to 100% within 15 min in short gradient and 30 min in long gradient. The Agilent SB-CN column (150 × 4.6 mm; 3.5 µm; Zorbax; USA) was used for the cyanopropyl chromatography. The CN chromatography analyses were carried out in linear gradient from 20 to 100%, which was applied from 0 to 20 min in short gradient, and from 0 to 40 min in long gradient. The flow rate was 1.5 mL/min. The column Unison UK-Phenyl (150 × 2 mm; 3.0 µm; Imtakt; USA) was used to perform phenyl chromatography. The flow rate was set to 0.2 mL/min. The phenyl analyses were carried out in linear gradient from 40 to 100%, which was applied from 0 to 20 min in short gradient, and from 0 to 40 min in long gradient. Each HPLC analysis was run in triplicate; in Tables S2–S6, obtained retention times are listed, whereas representative chromatograms are shown in Figure 9.

[3] = C8 chromatography (RP-HPLC), logkw from two gradients with DryLab; assay type: physicochemical; details: for logkw, Table S4: C8 chromatography, pH 7.4, short and long gradient; for logkwC8: pH 7.4, 40 °C, retention factor extrapolated to 0% organic modifier
Description: as §1, §2, §3

[4] = IAM chromatography (IAM-HPLC), IAM.PC.DD2 column; assay type: physicochemical; details: for CHI (CHIIAM), Table S2: IAM chromatography, from mean of three retention times; for CHI (CHIIAM), Table S2 / logkIAM: pH 7.4; for logkIAM: logkIAM = 0.045 CHIIAM + 0.42; for CHIIAM: pH 7.4, 30 °C, acetonitrile gradient
Description: as §1, §2
(§4) All HPLC experiments were carried out using a Prominence-1 LC-2030C 3D HPLC system (Shimadzu, Japan) equipped with a DAD detector and controlled by the LabSolution system (version 5.90 Shimadzu, Japan). The stock solutions of solutes were diluted to obtain 100 μg/mL concentrations, and the injected volume was 10 μL. During this study, six different columns in terms of chemical modification of stationary phases were used. Retention times (tR) of investigated sulfonamides were collected, and their detection in all systems was performed at the wavelength characteristic for each compound, summarized in Table S1. For all chromatography systems, analysis was carried out at 40 °C, except for IAM chromatography, in which oven temperature was set to 30 °C. The CHIIAM and CHI18 indices of the target sulfonamides derivatives were obtained using the protocol proposed by Valko and co-workers. C18 chromatography was performed on a Waters-C18 column (150 mm × 3.9 mm; 5.0 µm; Symmetry; USA), with a 1.5 mL/min flow rate. The mobile phase was ammonium acetate buffer (50 mM) at pH 7.4 and acetonitrile as an organic modifier. The linear gradient from 2 to 98% ACN was applied from 0 to 30 min. IAM chromatography was executed on an IAM.PC.DD2 column ([…] × 4.6 mm; 10.0 µm; Regis Technologies, Morton Grove, IL, USA) additionally equipped with an IAM guard column with the same flow rate of 1.5 mL/min. The mobile phase was sodium phosphate buffer (10 mM) at pH 7.4 and acetonitrile as the organic phase. The linear gradient from 0 to 85% was applied within 5.25 min.

[5] = C18 chromatography (RP-HPLC), chromatographic hydrophobicity index; assay type: physicochemical; details: for chromatographic logD: Waters Symmetry C18 column, CHI log D = 0.0525 CHIC18 − 1.467, pH 7.4; for CHIC18: pH 7.4, 40 °C, acetonitrile gradient
Description: as §1, §2, §4

[6] = Cyanopropyl (CN) chromatography, logkw from two gradients with DryLab; assay type: physicochemical; details: for logkw, Table S5: Cyanopropyl chromatography, pH 7.4, short and long gradient; for logkwCN: pH 7.4, 40 °C, retention factor extrapolated to 0% organic modifier
Description: as §1, §2, §3

| Compound | pIC50 [1] | logkw, Table S6 [2] | logkwPh [2] | logkw, Table S4 [3] | logkwC8 [3] | CHI (CHIIAM), Table S2 [4] | logkIAM [4] | chromatographic logD [5] | CHIC18 [5] | logkw, Table S5 [6] | logkwCN [6] | CHIIAM [4] |
| --- | --- | --- | --- | --- | --- | --- | --- | --- | --- | --- | --- | --- |
| Cc1cc(S(=O)(=O)Nc2nnc(-c3ccccc3)c(=O)[nH]2)c(SCc2ccc(C(F)(F)F)cc2)cc1Cl [Compound 8] | 4.10 | 4.490 | 4.49 | 4.206 | 4.21 | 36.7 | 2.07 | 2.88 | 82.80 | 2.010 | 2.01 | – |
| Cc1cc(S(=O)(=O)Nc2nnc(C)c(=O)[nH]2)c(SCc2cccc3ccccc23)cc1Cl [Compound 9] | 4.07 | 2.880 | 2.88 | 3.692 | 3.69 | 31.4 | 1.83 | 2.33 | 72.30 | 1.850 | 1.85 | – |
| COc1ccc(NC(=O)c2cc(S(=O)(=O)Nc3nncc(-c4ccc(OC)cc4)n3)c(SCc3ccccc3)cc2Cl)cc1 [Compound 20] | 4.14 | 3.789 | 3.79 | 4.020 | 4.02 | – | 1.99 | 2.59 | 77.20 | 2.211 | 2.21 | 34.90 |
| O=S(=O)(Nc1cccc2cccnc12)c1ccc(-n2cccc2)cc1 [Compound 2] | 6.00 | 6.221 | 6.22 | 4.682 | 4.68 | 45.0 | 2.45 | 3.65 | 97.50 | 4.040 | 4.04 | – |
| Cc1cc(S(=O)(=O)Nc2nnc(-c3ccccc3)c(=O)[nH]2)c(SCc2cccc3ccccc23)cc1Cl [Compound 10] | 4.05 | 4.193 | 4.19 | 4.211 | 4.21 | 39.1 | 2.18 | 2.96 | 84.30 | 2.251 | 2.25 | – |
| Cc1ccc2cccc(NS(=O)(=O)c3ccc(-n4cccc4)cc3)c2n1 [Compound 4] | 5.05 | 7.389 | 7.39 | 4.898 | 4.90 | 45.9 | 2.49 | 4.04 | 104.80 | 3.628 | 3.63 | – |
| Cc1ccc(NC(=O)c2cc(S(=O)(=O)Nc3nncc(-c4ccc(C(F)(F)F)cc4)n3)c(SCc3ccccc3)cc2Cl)cc1 [Compound 17] | 4.15 | 4.540 | 4.54 | 4.490 | 4.49 | – | 2.28 | 3.25 | 89.90 | 2.544 | 2.54 | 41.40 |
| O=C(Nc1ccc(Cl)cc1)c1cc(S(=O)(=O)Nc2nncc(-c3ccc(C(F)(F)F)cc3)n2)c(SCc2ccccc2)cc1Cl [Compound 15] | 4.19 | 5.074 | 5.07 | 4.530 | 4.53 | – | 2.37 | 3.39 | 92.50 | 2.642 | 2.64 | 43.40 |
| COc1cc(-c2cnnc(NS(=O)(=O)c3cc(C(=O)Nc4ccc(C)cc4)c(Cl)cc3SCc3ccccc3)n2)cc(OC)c1OC [Compound 19] | 4.12 | 3.967 | 3.97 | 4.068 | 4.07 | – | 1.93 | 2.72 | 79.70 | 2.216 | 2.22 | 33.60 |
| COc1ccc(-c2cnnc(NS(=O)(=O)c3cc(C(=O)Nc4ccccc4)c(Cl)cc3SCc3ccccc3)n2)cc1 [Compound 14] | 4.11 | 4.310 | 4.31 | 4.130 | 4.13 | – | 2.03 | 2.68 | 78.90 | 2.020 | 2.02 | 35.80 |
| Cc1cc(S(=O)(=O)Nc2nncc(-c3cccc(F)c3)n2)c(SCc2cccc3ccccc23)cc1Cl [Compound 22] | 4.31 | 4.254 | 4.25 | 4.276 | 4.28 | 42.2 | 2.32 | 2.97 | 84.60 | 2.356 | 2.36 | – |
| Cc1cc(C)nc(NS(=O)(=O)c2ccc(-n3cccc3)cc2)n1 [Compound 7] | 4.16 | 2.810 | 2.81 | 3.300 | 3.30 | 24.3 | 1.51 | 1.88 | 63.80 | 1.780 | 1.78 | – |
| Cc1cc(S(=O)(=O)Nc2nnc(Cc3ccccc3[N+](=O)[O-])c(=O)[nH]2)c(SCc2cc3c(cc2Cl)OCO3)cc1Cl [Compound 12] | 4.06 | 3.897 | 3.90 | 4.070 | 4.07 | – | 2.00 | 2.7 | 79.30 | 2.162 | 2.16 | 35.20 |

— PMC9268166, “Modeling of Anticancer Sulfonamide Derivatives Lipophilicity by Chemometric and Quantitative Structure-Retention Relationships Approaches” (Molecules, 2022)
